# Source: patent US10202395B2, “Macrocycle with repeating triazole-carbazole units” (INDIANA UNIVERSITY RESEARCH & TECHNOLOGY CORPORATION, priority 2015, dated 2019)
# Values joined by “and” are separate entries in the source; they are usually repeats but may differ in a detail not shown here. Equal values may be shown once.
# Experiments:
# [1] = Anion binding constants by UV-Vis titration, I^−; details: 20% MeOH/CHCl3; for K2/K1: I^−, positive cooperativity
# Experimental: (§1) FIG. 2B depicts an exemplary plot of anion binding constants obtained from equilibrium restricted factor analysis (D. A. Griend, D. K. Bediako, M. J. DeVries, N. A. DeJong, L. P. Heeringa, Inorg Chem 2008, 47, 656-662) of UV-Vis titration data (20% MeOH/CHCl3). Salts added as TBA^+ with exception of FeCl4^− added as the 1-ethyl-3-methylimidazolium salt.
# (§2) The tricarb-anion stability constants were determined from UV-Vis titrations and evaluated using equilibrium restricted factor analysis (D. A. Griend, D. K. Bediako, M. J. DeVries, N. A. DeJong, L. P. Heeringa, Inorg Chem 2008, 47, 656-662) as implemented with Sivvu by employing the following equilibria: tricarb+X^− ? tricarb·X^−K1 (1) tricarb·X^−+tricarb ? tricarb2·X^−K2 (2) 2 tricarb+X^− ? tricarb2·X^−β2 (3)
# [2] = Anion binding constants by UV-Vis titration, ClO4^−; details: 20% MeOH/CHCl3; for logβ2: 2:1 sandwich; for K2/K1: ClO4^−, positive cooperativity
# Experimental: as §1, §2
# [3] = Anion binding constants by UV-Vis titration, ReO4^−; details: 20% MeOH/CHCl3; for K2/K1: ReO4^−, positive cooperativity
# Experimental: as §1, §2
# [4] = Anion binding constants by UV-Vis titration, PF6^−; details: 20% MeOH/CHCl3; for logβ2: 2:1 sandwich; for K2/K1: PF6^−, positive cooperativity
# Experimental: as §1, §2
# [5] = Anion binding constants by UV-Vis titration, SbF6^−; details: 20% MeOH/CHCl3; for logβ2: 2:1 sandwich; for K2/K1: SbF6^−, positive cooperativity
# Experimental: as §1, §2
# [6] = Anion binding constants by UV-Vis titration, FeCl4^−; details: 20% MeOH/CHCl3; for K2/K1: FeCl4^−, positive cooperativity
# Experimental: as §1, §2
# [7] = Solution phase self-association, variable concentration UV-Vis, isodesmic equal-K model; assay type: physicochemical
# From the text: Solution phase self-association was examined using variable concentration ^1H NMR and UV-Vis spectra. All aromatic ^1H NMR peaks shift upfield (FIG. 3B) with concentration (10×10^−6 M−2×10^−3 M) consistent with p stacking (R. B. Martin, Chem. Rev. 1996, 96, 3043-3064). UV-Vis spectroscopy was used to quantify the extent of self-association (S. A. Jenekhe, L. Lu, M. M. Alam, Macromolecules 2001, 34, 7315-7324) (0.7 to 24×10^−6 M, FIG. 3C). An isodesmic equal-K model (R. B. Martin, Chem. Rev. 1996, 96, 3043-3064) was used to quantify self-association (KE) to give KE=300,000±10,000 M^−1 in 20% MeOH/CHCl3 (ε=10.4). The self-association is high relative to other macrocycles (W. Zhang, J. S. Moore, Angew. Chem. Int. Ed. 2006, 45, 4416-4439) and believed to be driven by solvophobic effects and dipolar coupling. Consistent with dipolar coupling, use of pure CHCl3 with a lower polarity (ε=4.8), increases KE to 790,000±30,000 M^−1 (S.-L. Lee, Z. Yuan, L. Chen, K. S. Mali, K. Müllen, S. De Feyter, J Am. Chem. Soc. 2014, 136, 4117-4120; S.-L. Lee, Z. Yuan, L. Chen, K. S. Mali, K. Müllen, S. De Feyter, J. Am. Chem. Soc. 2014; P. Samori, N. Severin, C. D. Simpson, K. Müllen, J. P. Rabe, J. Am. Chem. Soc. 2002, 124, 9454-9457).
# [8] = Cyclic voltammetry in solution; assay type: physicochemical; details: 1×10^−3 M, 0.1 M tetrabutylammonium hexafluorophosphate, glassy carbon working electrode, chloroform, room temperature
# From the text: FIG. 7 depicts a representative current-voltage response curve recorded using cyclic voltammetry of tricarb of Formula (IB) in solution. […] Conditions: [tricarb of Formula (IB)]=1×10^−3 M, 0.1 M tetrabutylammonium hexafluorophosphate, glassy carbon working electrode, platinum counter electrode, chloroform, room temperature, Ar degassed.
# [9] = listed as tricarb of Formula (I)
# [10] = ClO4^− as tetrabutylammonium salt
# [11] = ReO4^− as tetrabutylammonium salt
# [12] = PF6^− as tetrabutylammonium salt
# [13] = SbF6^− as tetrabutylammonium salt
# [14] = FeCl4^− as 1-ethyl-3-methylimidazolium salt
structure (smiles),measurement,setting,value
"CCCCCCCCCCn1c2ccc3cc2c2cc(ccc21)n1cc(nn1)c1ccc2c(c1)c1cc(ccc1n2CCCCCCCCCC)n1cc(nn1)c1ccc2c(c1)c1cc(ccc1n2CCCCCCCCCC)n1cc3nn1 [tricarb of Formula (IB), tridecyl-tricarbazolo-triazolophane]",logβ2,"[1]; I^− as tetrabutylammonium salt, 2:1 sandwich",9.3 ± 0.3
same,logK1,"[1]; I^− as tetrabutylammonium salt, tricarb+X^− = tricarb·X^−",4.3 ± 0.1
same,logK2,"[1]; I^− as tetrabutylammonium salt, tricarb·X^−+tricarb = tricarb2·X^−",5.1 ± 0.2
same,K2/K1,[1]; listed as tricarb,6 ± 3
same,K2/K1,[1]; [9],~5
same,logK1,[2]; [10],4.04 ± 0.01
same,logK2,[2]; [10],5.87 ± 0.01
same,logβ2,"[2]; ClO4^− as tetrabutylammonium salt, listed as Tricarb of Formula (IB)",10
same,logβ2,"[2]; ClO4^− as tetrabutylammonium salt, listed as tricarb",10.04 ± 0.02
same,K2/K1,[2]; listed as tricarb,67 ± 3
same,K2/K1,[2]; [9],~70
same,logK1,[3]; [11],3.8 ± 0.1
same,logK2,[3]; [11],6.2 ± 0.1
same,logβ2,"[3]; ReO4^− as tetrabutylammonium salt, 2:1 sandwich",10.0 ± 0.2
same,K2/K1,[3]; listed as tricarb,200 ± 100
same,K2/K1,[3]; [9],200
same,logK1,[4]; [12],4.46 ± 0.01
same,logK2,[4]; [12],6.94 ± 0.01
same,logβ2,"[4]; PF6^− as tetrabutylammonium salt, listed as Tricarb of Formula (IB)",11.4
same,logβ2,"[4]; PF6^− as tetrabutylammonium salt, listed as tricarb",11.40 ± 0.02
same,K2/K1,[4]; listed as tricarb,300 ± 60
same,K2/K1,[4]; [9],300
same,logK1,[5]; [13],5.2 ± 0.2
same,logK2,[5]; [13],6.4 ± 0.2
same,logβ2,"[5]; SbF6^− as tetrabutylammonium salt, listed as Tricarb of Formula (IB)",11.6
same,logβ2,"[5]; SbF6^− as tetrabutylammonium salt, listed as tricarb",11.6 ± 0.4
same,K2/K1,[5]; listed as tricarb,30 ± 20
same,K2/K1,[5]; [9],~30
same,logK1,[6]; [14],4.0 ± 0.1
same,logK2,[6]; [14],3.7 ± 0.2
same,logβ2,"[6]; FeCl4^− as 1-ethyl-3-methylimidazolium salt, 2:1 sandwich",7.7 ± 0.3
same,K2/K1,[6]; listed as tricarb,5.2 ± 0.2
same,K2/K1,[6]; [9],~5
same,self-association (KE),"[7]; 20% MeOH/CHCl3 (ε=10.4), 0.7 to 24×10^−6 M","300,000±10,000 M^−1"
same,self-association (KE),[7]; pure CHCl3 (ε=4.8),"790,000±30,000 M^−1"
same,half-wave oxidation potential E1/2,[8],0.8 V vs Ag/AgCl
same,peak potentials,[8],0.95 V and 0.65 V
